In ChEMBL document CHEMBL1141422, “Isolation and structures of erylosides from the Caribbean sponge Erylus formosus” (J Nat Prod, 2007):
Activity calls are given as the source filed them. The rule behind the calls is not given here.

Tests used:
Ehrlich = assay: Induction of apoptosis in mouse Ehrlich carcinoma cells at 100 ug/ml; type: functional, cell-based
[1] = Activation of calcium influx into mouse splenocytes at 100 ug/ml relative to control; type: functional, cell-based; conditions: Splenocyte

SMILES	Activity (Ehrlich)	Activity [1] [%]
C=C(C)[C@@H](O)CC[C@@H](C)[C@H]1CC[C@@]2(C(=O)O)C3=C(CC[C@]12C)[C@@]1(C)CC[C@H](O[C@@H]2OC[C@H](O)[C@H](O)[C@H]2O[C@@H]2O[C@H](CO)[C@H](O)[C@H](O)[C@H]2O)C(C)(C)[C@@H]1CC3	Active	
C=C(CC[C@@H](C)[C@H]1CC[C@@]2(C(=O)O)C3=C(CC[C@]12C)[C@@]1(C)CC[C@H](O[C@@H]2OC[C@H](O)[C@H](O)[C@H]2O[C@@H]2O[C@H](CO)[C@H](O)[C@H](O)[C@H]2O)C(C)(C)[C@@H]1CC3)C(C)C		130
CC(C)=CCC[C@@H](C)[C@H]1CC[C@@]2(C(=O)O)C3=C(CC[C@]12C)[C@@]1(C)CC[C@H](O[C@@H]2OC[C@H](O)[C@H](O)[C@H]2O[C@@H]2O[C@H](CO)[C@H](O)[C@H](O)[C@H]2O)C(C)(C)[C@@H]1CC3		130
